Biological target: T1, human S1P1 receptors (Homo sapiens, UniProt P21453)
T1 construct: myc (N); expressed in transfected cells; host or cells: HeLa (human cervix carcinoma, ATCC CCL2), HeLa-S1P1/Gα16 cell clone 1
Assay: Human S1P1 Receptor Calcium FLIPR Antagonist Assay (HeLa Gα16 S1P1)
Format: cell-based
Details: relative antagonism of Ca2+ signal evoked by probing agonist GNF-AC-1 at EC80; HeLa-S1P1/Gα16 cells
Method: Human S1P1 Receptor Calcium FLIPR Antagonist Assay
The cells are plated in 384 well black plates (10′000 cells per well). […] After washing, the cells are transferred to the FLIPR. The test compounds are added at different concentrations […]) in HBSS in the presence of 0.1% BSA and changes in fluorescence are recorded (indication of agonism). The probing agonist is added 20-30 minutes afterwards to the wells at a concentration giving 80% of the maximal activity (EC80). After each addition, time points are collected as follows: 20 time points (2 seconds) before the addition of the agonist (Fmin) and 60 time points (1 or 2 seconds) after the addition of the probing agonist. This allows the determination of the maximal fluorescence (Fmax). The ratio (Fmax-Fmin)/Fmin is plotted against the log of the concentration of the test compounds and the IC50 (relative antagonism) is calculated using the XLfit-4 software. […] A concentration-response curve of the probing agonist is determined on each plate in parallel.

T1 sequence (P21453 whole entry): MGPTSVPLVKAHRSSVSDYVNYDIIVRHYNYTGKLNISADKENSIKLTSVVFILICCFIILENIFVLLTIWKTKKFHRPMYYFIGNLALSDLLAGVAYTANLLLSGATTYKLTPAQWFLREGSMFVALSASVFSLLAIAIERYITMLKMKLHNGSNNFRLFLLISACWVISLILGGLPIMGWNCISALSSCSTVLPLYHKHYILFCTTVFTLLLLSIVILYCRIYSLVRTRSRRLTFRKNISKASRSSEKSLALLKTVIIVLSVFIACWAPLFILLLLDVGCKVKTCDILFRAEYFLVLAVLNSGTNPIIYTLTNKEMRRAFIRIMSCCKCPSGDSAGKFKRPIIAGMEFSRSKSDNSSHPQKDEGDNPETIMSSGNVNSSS

Row | Compound | IC50 [nM]
1 | COc1ccc(C(C)Nc2cccc(-c3cc(C)c(C(=O)N[C@@H](C)C(=O)O)c(C)c3)c2)cc1Cl (stereo partly drawn) [Example 1, (S)-2-({3′-[1-(3-Chloro-4-methoxy-phenyl)-ethylamino]-3,5-dimethyl-biphenyl-4-carbonyl}-amino)-propionic acid] | 2
2 | CCC(Nc1cccc(-c2cc(C)c(C(=O)N[C@@H](C)C(=O)O)c(C)c2)c1)c1ccc(Cl)c(C)c1 (stereo partly drawn) [Example 5, (S)-2-({3′-[1-(4-Chloro-3-methyl-phenyl)-propylamino]-3,5-dimethyl-biphenyl-4-carbonyl}-amino)-propionic acid] | 2
3 | Cc1cc(-c2cccc(NC(C)c3ccc(Cl)c(F)c3)c2)cc(C)c1C(=O)N[C@@H](C)C(=O)O (stereo partly drawn) [Example 9, (S)-2-({3′-[1-(4-Chloro-3-fluoro-phenyl)-ethylamino]-3,5-dimethyl-biphenyl-4-carbonyl}-amino)-propionic acid] | 3
4 | Cc1cc(-c2cccc(NC(C)c3ccc(Cl)c(Cl)c3)c2)cc(C)c1C(=O)N[C@@H](C)C(=O)O (stereo partly shown) [Example 10] | 2
5 | Cc1ccc(C(C)Nc2cccc(-c3cc(C)c(C(=O)N[C@@H](C)C(=O)O)c(C)c3)c2)cc1C (stereo partly drawn) [Example 11, (S)-2-({3′-[1-(3,4-Dimethylphenyl)-ethylamino]-3,5-dimethyl-biphenyl-4-carbonyl}-amino)-propionic acid] | 4
6 | Cc1cc(C(C)Nc2cccc(-c3cc(C)c(C(=O)N[C@@H](C)C(=O)O)c(C)c3)c2)c(C)cc1Cl (stereo partly drawn) [Example 13, (S)-2-({3′-[1-(4-Chloro-2,5-dimethyl-phenyl)-ethylamino]-3,5-dimethyl-biphenyl-4-carbonyl}-amino)-propionic acid] | 5
7 | Cc1cc(-c2cccc(NC(C)c3ccc(Cl)c(C(F)(F)F)c3)c2)cc(C)c1C(=O)N[C@@H](C)C(=O)O (stereo partly shown) [Example 14] | 4
8 | COc1cc(C(C)Nc2cccc(-c3cc(C)c(C(=O)N[C@@H](C)C(=O)O)c(C)c3)c2)ccc1F (stereo partly drawn) [Example 15, (S)-2-({3′-[1-(4-Fluoro-3-methoxy-phenyl)-ethylamino]-3,5-dimethyl-biphenyl-4-carbonyl}-amino)-propionic acid] | 2
9 | Cc1cc(C(C)Nc2cccc(-c3cc(C)c(C(=O)N[C@@H](C)C(=O)O)c(C)c3)c2)c(F)cc1Cl (stereo partly drawn) [Example 16, (S)-2-({3′-[1-(4-Chloro-2-fluoro-5-methyl-phenyl)-ethylamino]-3,5-dimethyl-biphenyl-4-carbonyl}-amino)-propionic acid] | 2
10 | Cc1cc(-c2cccc(NC(C)c3ccc(F)c(OC(F)(F)F)c3)c2)cc(C)c1C(=O)N[C@@H](C)C(=O)O (stereo partly drawn) [Example 17, (S)-2-({3′-[1-(4-Fluoro-3-trifluoromethoxy-phenyl)-ethylamino]-3,5-dimethyl-biphenyl-4-carbonyl}-amino)-propionic acid] | 5
11 | COc1ccc(C(C)Nc2cccc(-c3cc(C)c(C(=O)N[C@@H](C)C(=O)O)c(C)c3)c2)cc1F (stereo partly drawn) [Example 18, (S)-2-({3′-[1-(3-Fluoro-4-methoxy-phenyl)-ethylamino]-3,5-dimethyl-biphenyl-4-carbonyl}-amino)-propionic acid] | 4
12 | Cc1cc(F)cc(C(C)Nc2cccc(-c3cc(C)c(C(=O)N[C@@H](C)C(=O)O)c(C)c3)c2)c1 (stereo partly drawn) [Example 19, (S)-2-({3′-[1-(3-Fluoro-5-methyl-phenyl)-ethylamino]-3,5-dimethyl-biphenyl-4-carbonyl}-amino)-propionic acid] | 2
13 | Cc1cc(C(C)Nc2cccc(-c3cc(C)c(C(=O)N[C@@H](CO)C(=O)O)c(C)c3)c2)ccc1Cl (stereo partly drawn) [Example 21, (S)-2-({3′-[1-(4-Chloro-3-methyl-phenyl)-ethylamino]-3,5-dimethyl-biphenyl-4-carbonyl}-amino)-3-hydroxy-propionic acid] | 2
14 | CCC(Nc1cccc(-c2cc(C)c(C(=O)NC3(C(=O)O)CC3)c(C)c2)c1)c1ccc(Cl)c(C)c1 (stereo not shown) [Example 27, 1-({3′-[1-(4-Chloro-3-methyl-phenyl)-propylamino]-3,5-dimethyl-biphenyl-4-carbonyl}-amino)-cyclopropanecarboxylic acid] | 2
15 | Cc1cc(C)cc(C(C)Nc2cccc(-c3cc(C)c(C(=O)N[C@@H](C)C(=O)O)c(C)c3)c2)c1 (stereo partly drawn) [Example 28, (S)-2-({3′-[1-(3,5-Dimethyl-phenyl)-ethylamino]-3,5-dimethyl-biphenyl-4-carbonyl}-amino)-propionic acid] | 3
16 | Cc1cc(C(C)Nc2cccc(-c3cc(C)c(C(=O)N[C@@H](C)C(=O)O)c(C)c3)c2)cc(C)c1Cl (stereo partly drawn) [Example 29, (S)-2-({3′-[1-(4-Chloro-3,5-dimethyl-phenyl)-ethylamino]-3,5-dimethyl-biphenyl-4-carbonyl}-amino)-propionic acid] | 2

Row | Compound | IC50 [nM]
17 | COc1ccc(C(C)Nc2cccc(-c3cc(C)c(C(=O)N[C@@H](C)C(=O)O)c(C)c3)c2)cc1C (stereo partly drawn) [Example 30, (S)-2-({3′-[1-(4-Methoxy-3-methyl-phenyl)-ethylamino]-3,5-dimethyl-biphenyl-4-carbonyl}-amino)-propionic acid] | 2
18 | COc1ccc(C(C)Nc2cccc(-c3cc(C)c(C(=O)N[C@@H](C)C(=O)O)c(C)c3)c2)cc1C(F)(F)F (stereo partly drawn) [Example 33, (S)-2-({3′-[1-(4-Methoxy-3-trifluoromethyl-phenyl)-ethylamino]-3,5-dimethyl-biphenyl-4-carbonyl}-amino)-propionic acid] | 1
19 | COc1c(F)cc(C(C)Nc2cccc(-c3cc(C)c(C(=O)N[C@@H](C)C(=O)O)c(C)c3)c2)cc1F (stereo partly drawn) [Example 34, (S)-2-({3′-[1-(3,5-Difluoro-4-methoxy-phenyl)-ethylamino]-3,5-dimethyl-biphenyl-4-carbonyl}-amino)-propionic acid] | 3
20 | COc1ccc(C(C)Nc2cccc(-c3cc(C)c(C(=O)N[C@@H](C)C(=O)O)c(C)c3)c2)c(F)c1 (stereo partly drawn) [Example 35, (S)-2-({3′-[1-(2-Fluoro-4-methoxy-phenyl)-ethylamino]-3,5-dimethyl-biphenyl-4-carbonyl}-amino)-propionic acid] | 8
21 | COc1c(F)cc(C(C)Nc2cccc(-c3cc(C)c(C(=O)N[C@@H](C)C(=O)O)c(C)c3)c2)cc1Cl (stereo partly drawn) [Example 36, (S)-2-({3′-[(3-Chloro-5-fluoro-4-methoxy-phenyl)-ethylamino]-3,5-dimethyl-biphenyl-4-carbonyl}-amino)-propionic acid] | 2
22 | COc1c(C)cc(C(C)Nc2cccc(-c3cc(C)c(C(=O)N[C@@H](C)C(=O)O)c(C)c3)c2)cc1C (stereo partly drawn) [Example 37, (S)-2-({3′-[1-(4-Methoxy-3,5-dimethyl-phenyl)-ethylamino]-3,5-dimethyl-biphenyl-4-carbonyl}-amino)-propionic acid] | 2
23 | Cc1cc([C@@H](C)Nc2cccc(-c3ccc(C(=O)N[C@@H](C)C(=O)O)c(C)c3)c2)ccc1Cl [Example 40, (S)-2-({3′-[(R)-1-(4-Chloro-3-methyl-phenyl)-ethylamino]-3-methyl-biphenyl-4-carbonyl}-amino)-propionic acid] | 2
24 | CCc1cc(-c2cccc(NC(C)c3ccc(Cl)c(C)c3)c2)ccc1C(=O)N[C@@H](C)C(=O)O (stereo partly drawn) [Example 42, (S)-2-({3′-[1-(4-Chloro-3-methyl-phenyl)-ethylamino]-3-ethyl-biphenyl-4-carbonyl}-amino)-propionic acid] | 3
25 | CCc1cc(-c2cccc(NC(C)c3ccc(Cl)c(C)c3)c2)ccc1C(=O)N(C)[C@@H](C)C(=O)O (stereo partly drawn) [Example 43, (S)-2-({3′-[1-(4-Chloro-3-methyl-phenyl)-ethylamino]-3-ethyl-biphenyl-4-carbonyl}-methyl-amino)-propionic acid] | 3
26 | CCc1cc(-c2cccc(NC(C)c3cc(C)c(Cl)c(C)c3)c2)ccc1C(=O)N(C)[C@@H](C)C(=O)O (stereo partly drawn) [Example 45, (S)-2-({3′-[1-(4-Chloro-3,5-dimethyl-phenyl)-ethylamino]-3-ethyl-biphenyl-4-carbonyl}-methyl-amino)-propionic acid] | 5
27 | Cc1cc(C(C)Nc2cccc(-c3ccc(C(=O)N[C@@H](C)C(=O)O)c(Cl)c3)c2)ccc1Cl (stereo partly drawn) [Example 46, (S)-2-({3-Chloro-3′-[1-(4-chloro-3-methyl-phenyl)-ethylamino]-biphenyl-4-carbonyl}-amino)-propionic acid] | 2
28 | Cc1cc(C(C)Nc2cccc(-c3ccc(C(=O)N(C)[C@@H](C)C(=O)O)c(Cl)c3)c2)ccc1Cl (stereo partly drawn) [Example 47, (S)-2-({3-Chloro-3′-[1-(4-chloro-3-methyl-phenyl)-ethylamino]-biphenyl-4-carbonyl}-methyl-amino)-propionic acid] | 2
29 | Cc1cc(C(C)Nc2cccc(-c3ccc(C(=O)N(C)[C@@H](C)C(=O)O)c(F)c3)c2)ccc1Cl (stereo partly drawn) [Example 49, (S)-2-({3′-[1-(4-Chloro-3-methyl-phenyl)-ethylamino]-3-fluoro-biphenyl-4-carbonyl}-methyl-amino)-propionic acid] | 3
30 | Cc1cc(C(C)Nc2cccc(-c3cc(F)c(C(=O)N[C@@H](C)C(=O)O)c(F)c3)c2)ccc1Cl (stereo partly drawn) [Example 50, (S)-2-({3′-[1-(4-Chloro-3-methyl-phenyl)-ethylamino]-3,5-difluoro-biphenyl-4-carbonyl}-amino)-propionic acid] | 3
31 | Cc1cc(C(C)Nc2cccc(-c3cc(F)c(C(=O)N(C)[C@@H](C)C(=O)O)c(F)c3)c2)ccc1Cl (stereo partly drawn) [Example 51, (S)-2-({3′-[1-(4-Chloro-3-methyl-phenyl)-ethylamino]-3,5-difluoro-biphenyl-4-carbonyl}-methyl-amino)-propionic acid] | 6

Source: US20100168079A1 (priority 2008, published 2010)
